These results are taken from patent US20150148311A1, “NON-SYSTEMIC TGR5 AGONISTS” (Ardelyx, Inc., priority 2011, published 2015).

One experiment concerns the target T1, human TGR5 (Homo sapiens, UniProt Q8TDU6).
T1 construct: expressed in transfected cells
T1 sequence (Q8TDU6 1-330): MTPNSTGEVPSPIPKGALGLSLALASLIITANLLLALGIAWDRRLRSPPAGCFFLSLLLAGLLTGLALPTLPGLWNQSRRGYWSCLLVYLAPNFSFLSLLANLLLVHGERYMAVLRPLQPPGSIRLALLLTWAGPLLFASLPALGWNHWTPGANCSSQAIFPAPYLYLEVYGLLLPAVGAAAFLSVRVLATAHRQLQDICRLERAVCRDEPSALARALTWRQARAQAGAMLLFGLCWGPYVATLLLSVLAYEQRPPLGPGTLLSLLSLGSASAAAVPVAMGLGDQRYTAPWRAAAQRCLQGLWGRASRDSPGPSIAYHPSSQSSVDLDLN
The experiment can be described thus: Cell-based TGR5 assay, HEK293 cells stably expressing human TGR5, cAMP by HTRF. To be noted: HEK293 cells stably expressing human TGR5, 30 min at 37 C, 0.05 nM to 10 μM; for EC50: read-out: pEC50 Human TGR5 (converted). The procedure, abridged:
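cAMP HTRF read-out, converted to concentration via standard curve, after a 30 min, 37 °C compound exposure in HBSS with 10 mM HEPES pH 7.4 and 0.5 mM IBMX, compounds serially diluted 3-fold from 10 mM DMSO stock then 100-fold. Cells: stable human TGR5 HEK293, or NCI-H716 expressing TGR5 endogenously.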
In general terms: TR-FRET usually uses a lanthanide donor and a delayed reading to cut background.

Experiment [1] addresses T2, endogenously expressed TGR5 in NCI H716 (Homo sapiens, UniProt Q8TDU6).
T2 construct: human caecum carcinoma cell line NCI-H716 which endogenously expresses human TGR5; endogenous in cells; host or cells: NCI-H716
T2 sequence (Q8TDU6 1-330): T1 sequence (Q8TDU6 1-330)
The experiment can be described thus: Cell-based TGR5 assay, NCI-H716 cells endogenously expressing human TGR5, cAMP by HTRF. To be noted: 30 min at 37 C, 22 nM to 50 μM, read-out: pEC50 endogenously expressed TGR5 in NCI H716 (converted). As to the method: Two primary cell based screens were performed. The first utilized HEK293 cells stably transfected to heterologously express human TGR5. The second screen used the human caecum carcinoma cell line NCI-H716 which endogenously expresses human TGR5. In both assays, cells are treated with candidate TGR5 activators and assessed for the increased intercellular levels of cAMP. […]
TGR5-mediated cAMP generation was measured using a homogeneous time resolved fluorescence (HTRF) detection method (Cisbio). Test compounds were dissolved in DMSO to a final concentration of 10 mM. Serial 3-fold dilutions of the stock solution were made in DMSO, and these solutions were diluted 100-fold into Hanks Balanced Salt Solution supplemented with 10 mM HEPES pH 7.4 and 0.5 mM isobutyl methylxanthine (IBMX). Prior to assay, culture medium was replaced with fresh medium, and test compounds diluted in HBSS/HEPES/IBMX were added to the cells and incubated at 37° C. for 30 minutes.
Following incubation with test compounds, cAMP was detected through the successive addition of cAMP labeled with the modified allophyocyanin dye d2 (cAMP-d2) and cryptate-labeled anti-cAMP in lysis buffer, and reading HTRF per the manufacturer's instructions. A standard curve was used to convert the raw HTRF data into [cAMP].

SMILES strings stand for the structures. Where only a bound is given, the exact number is not on record here.

With `O=C([C@@H]1CCCN1Cc1cc(C(F)(F)F)ccc1Cl)N1CCN(C2CC2)c2ccccc21` [Example 84, 1-[[(2S)-1-[[2-chloro-5-(trifluoromethyl)phenyl]methyl]pyrrolidin-2-yl]carbonyl]-4-cyclopropyl-1,2,3,4-tetrahydroquinoxaline], the values for the EC50 (at human TGR5; in experiment [1]) were < 0.1 µM and 0.126 to 1 µM, respectively.

Regarding `O=C(N1CCCc2ncccc21)C1(OCc2cc(Cl)ccc2Cl)CC1` [Example 86, 1-([1-[(2,5-dichlorophenyl)methoxy]cyclopropyl]carbonyl)-1,2,3,4-tetrahydro-1,5-naphthyridine], the EC50 at human TGR5 was > 10 µM; in experiment [1], > 50.1 µM.

Regarding `COc1cc(Cl)c(CN2CCC[C@H]2C(=O)N2CCN(C3CC3)c3ccccc32)cc1Cl` [Example 89, (S)-(4-cyclopropyl-3,4-dihydroquinoxalin-1(2H)-yl)(1-(2,5-dichloro-4-methoxybenzyl)pyrrolidin-2-yl)methanone], the EC50 on human TGR5 was 0.126 to 1 µM; in experiment [1], 1.26 to 50.1 µM.

As to `O=C(N1CCN(C2CC2)c2ccccc21)C1(NCc2cc(Cl)ccc2Cl)COC1` [Example 90, (4-cyclopropyl-3,4-dihydroquinoxalin-1(2H)-yl)(3-(2,5-dichlorobenzylamino)oxetan-3-yl)methanone], the EC50 at human TGR5 is < 0.1 µM; in experiment [1] it was 0.126 to 1 µM.

As for `CN(C[C@H](O)[C@@H](O)[C@H](O)[C@H](O)CO)C(=O)CCc1cc(Cl)c(CNC2(C(=O)N3CCN(C4CC4)c4ccccc43)CC2)cc1Cl` [Example 91, 3-(2,5-dichloro-4-((1-(4-cyclopropyl-1,2,3,4-tetrahydroquinoxaline-1-carbonyl)cyclopropylamino)methyl)phenyl)-N-methyl-N-((2S,3R,4R,5R)-2,3,4,5,6-pentahydroxyhexyl)propanamide], the EC50 (at human TGR5; in experiment [1]) was 0.126 to 1 µM each time.

As to `NCCCc1cc(Cl)c(CNC2(C(=O)N3CCN(C4CC4)c4ccccc43)CC2)cc1Cl` [Example 92, (1-(4-(3-aminopropyl)-2,5-dichlorobenzylamino)cyclopropyl)(4-cyclopropyl-3,4-dihydroquinoxalin-1(2H)-yl)methanone], the EC50 (on human TGR5; in experiment [1]) was 1.26 to 50.1 µM throughout.

With `CN(C[C@H](O)[C@@H](O)[C@H](O)[C@H](O)CO)C(=O)NCCCc1cc(Cl)c(CNC2(C(=O)N3CCN(C4CC4)c4ccccc43)CC2)cc1Cl` [Example 93, 3-(3-(2,5-dichloro-4-((1-(4-cyclopropyl-1,2,3,4-tetrahydroquinoxaline-1-carbonyl)cyclopropylamino)methyl)phenyl)propyl)-1-methyl-1-((2S,3R,4R,5R)-2,3,4,5,6-pentahydroxyhexyl)urea], the EC50 (on human TGR5; in experiment [1]) was 0.126 to 1 µM each time.

Take `CC(OC1(C(=O)N2CCN(C3CC3)c3ccccc32)CC1)c1cc(Cl)ccc1Cl` (centres unmarked) [Example 94, (4-cyclopropyl-3,4-dihydroquinoxalin-1(2H)-yl)(1-(1-(2,5-dichlorophenyl)ethoxy)cyclopropyl)methanone]: the EC50 (on human TGR5; in experiment [1]) was 1.26 to 50.1 µM each time.

In the case of `O=C(CCc1cc(Cl)c(CNC2(C(=O)N3CCN(C4CC4)c4ccccc43)CC2)cc1Cl)NCCOCCOCCNC(=O)CCc1cc(Cl)c(CNC2(C(=O)N3CCN(C4CC4)c4ccccc43)CC2)cc1Cl` [Example 95, N,N′-(2,2′-(ethane-1,2-diylbis(oxy))bis(ethane-2,1-diyl))bis(3-(2,5-dichloro-4-((1-(4-cyclopropyl-1,2,3,4-tetrahydroquinoxaline-1-carbonyl)cyclopropylamino)methyl)phenyl)propanamide)], the EC50 on human TGR5 is < 0.1 µM; in experiment [1], 1.26 to 50.1 µM.

Consider `O=C(N1CCN(C2CC2)c2ccccc21)C1(OCc2cc(Cl)ccc2Cl)COC1` [Example 179, (4-cyclopropyl-3,4-dihydroquinoxalin-1(2H)-yl)(3-(2,5-dichlorobenzyloxyl)oxetan-3-yl)methanone], for which the EC50 is < 0.1 µM at human TGR5 and 0.126 to 1 µM in experiment [1].

As for `O=C(N1CCN(C2CC2)c2ccccc21)C1(CSc2cc(Cl)ccc2Cl)CC1` [Example 180, (4-cyclopropyl-3,4-dihydroquinoxalin-1(2H)-yl)(1-((2,5-dichlorophenylthio)methyl)cyclopropyl)methanone], the EC50 is < 0.1 µM at human TGR5 and 0.126 to 1 µM in experiment [1].

Turning to `CN(C[C@H](O)[C@@H](O)[C@H](O)[C@H](O)CO)C(=O)NCCOc1cc(Cl)c(CN2CSC[C@H]2C(=O)N2CCN(C3CC3)c3ccccc32)cc1Cl` [Example 184], the EC50 (on human TGR5; in experiment [1]) was 0.126 to 1 µM throughout.

Consider `CN(C[C@H](O)[C@@H](O)[C@H](O)[C@H](O)CO)C(=O)NCCOc1cc(Cl)c(CNC2(C(=O)N3CCN(C4CC4)c4ccccc43)CC2)cc1Cl` [Example 185], for which the EC50 at human TGR5 is 0.126 to 1 µM; in experiment [1] it was 1.26 to 50.1 µM.

With `CN(C[C@H](O)[C@@H](O)[C@H](O)[C@H](O)CO)C(=O)NCCCCOc1cc(Cl)c(CNC2(C(=O)N3CCN(C4CC4)c4ccccc43)CC2)cc1Cl` [Example 186], the EC50 was 0.126 to 1 µM on human TGR5 and 1.26 to 50.1 µM in experiment [1].

For `O=C(O)CCCOc1cc(Cl)c(CNC2(C(=O)N3CCN(C4CC4)c4ccccc43)CC2)cc1Cl` [Example 187], the EC50 is 0.126 to 1 µM at human TGR5 and 1.26 to 50.1 µM in experiment [1].

On to `CN(C[C@H](O)[C@@H](O)[C@H](O)[C@H](O)CO)C(=O)NCCOc1cc(Cl)c(CNC2(C(=O)N3CCN(C4CC4)c4ccccc43)CC2)cc1Cl` [Example 188], for which the “pEC50 Human TGR5” value at human TGR5 is on record as “B (B is a pEC50 of 6-6.9)”. For the same compound, the EC50 in experiment [1] is 0.126 to 1 µM.

On to `CN(C[C@H](O)[C@@H](O)[C@H](O)[C@H](O)CO)C(=O)CCCOc1cc(Cl)c(CN2CSC[C@H]2C(=O)N2CCN(C3CC3)c3ccccc32)cc1Cl` [Example 189], for which the EC50 is < 0.1 µM on human TGR5 and 0.126 to 1 µM in experiment [1].

In the case of `O=C(NCCCc1cc(Cl)c(CNC2(C(=O)N3CCN(C4CC4)c4ccccc43)CC2)cc1Cl)NCCOCCOCCNC(=O)NCCCc1cc(Cl)c(CNC2(C(=O)N3CCN(C4CC4)c4ccccc43)CC2)cc1Cl` [Example 212], the EC50 (at human TGR5; in experiment [1]) was 1.26 to 50.1 µM in each case.

For `CN(C[C@H](O)[C@@H](O)[C@H](O)[C@H](O)CO)C(=O)NCCCCc1ccc(Cl)c(CNC2(C(=O)N3CCN(C4CC4)c4ccccc43)CC2)c1` [Example 213], the EC50 at human TGR5 was 0.126 to 1 µM; in experiment [1], 1.26 to 50.1 µM.

For `CN(C[C@H](O)[C@@H](O)[C@@H](O)[C@H](O)CO)C(=O)NCCCc1cc(Cl)c(CNC2(C(=O)N3CCN(C4CC4)c4ccccc43)CC2)cc1Cl` [Example 214], the EC50 (on human TGR5; in experiment [1]) was 0.126 to 1 µM in each case.

With `CN(C[C@H](O)[C@@H](O)[C@H](O)[C@H](O)CO)C(=O)CCc1ccc(Cl)c(CN2CSC[C@H]2C(=O)N2CCN(C3CC3)c3ccccc32)c1` [Example 215], the EC50 at human TGR5 is 0.126 to 1 µM; in experiment [1], 1.26 to 50.1 µM.

Turning to `CN(C[C@H](O)[C@@H](O)[C@H](O)[C@H](O)CO)C(=O)NCCCc1ccc(Cl)c(CN2CSC[C@H]2C(=O)N2CCN(C3CC3)c3ccccc32)c1` [Example 217], the EC50 is 0.126 to 1 µM at human TGR5 and 1.26 to 50.1 µM in experiment [1].

Turning to `CN(C[C@H](O)[C@@H](O)[C@H](O)[C@H](O)CO)C(=O)CCCCc1cc(Cl)c(CNC2(C(=O)N3CCN(C4CC4)c4ccccc43)CC2)cc1Cl` [Example 219], the EC50 (at human TGR5; in experiment [1]) was < 0.1 µM throughout.

Consider `CN(C[C@H](O)[C@@H](O)[C@@H](O)[C@H](O)CO)C(=O)CCCCc1cc(Cl)c(CNC2(C(=O)N3CCN(C4CC4)c4ccccc43)CC2)cc1Cl` [Example 220], for which the EC50 (at human TGR5; in experiment [1]) was < 0.1 µM each time.

`O=C(N1CCN(C2CC2)c2ccccc21)C1(OCc2cc(Cl)ccc2Cl)CCCCC1` [Example 242]: the EC50 at human TGR5 is 0.126 to 1 µM; in experiment [1], > 50.1 µM.

Consider `CC(C(=O)N1CCN(C2CC2)c2ccccc21)N(C)Cc1cc(Cl)ccc1Cl` (centres unmarked) [Example 243], for which the figures for the EC50 (on human TGR5; in experiment [1]) were 0.126 to 1 µM and 1.26 to 50.1 µM, respectively.

As for `CC(C(=O)N1CCN(C2CC2)c2ccccc21)N1CCc2ccc(Cl)cc2C1` (centres unmarked) [Example 244], the EC50 (at human TGR5; in experiment [1]) was 1.26 to 50.1 µM in each case.

On to `Cc1ccc(Cl)c(CN2CCC[C@H]2C(=O)N2CCN(C3CC3)c3ccccc32)c1F` [Example 245], for which the EC50 (at human TGR5; in experiment [1]) was 1.26 to 50.1 µM each time.
